Earlier results as cited in US20210228671A1, “EXTRACT OF VEGETATION WATERS FOR USE IN THE TREATMENT AND/OR IN THE PREVENTION OF PROSTATE CANCER” (FATTORIA LA VIALLA DI GIANNI, ANTONIO E BANDINO LO FRANCO - …, priority 2018, published 2021).

Conditions: high concentrations, up to 250-500 mg/kg/day

For `OCCc1ccc(O)c(O)c1` [hydroxytyrosol], the “toxic effect of in vivo administration” value is given as “does not exert any toxic effect”.
